In US7863315B2, “2-indolinone derivatives as selective histone deacetylase inhibitors” (Shenzhen Chipscreen Biosciences, Ltd., priority 2008, dated 2011):

Legend:
lysine acetylation = test: ELISA assay of acetylation of lysine in HeLa cells; format: cell-based; conditions: Homo sapiens, M-HeLa, 24 hours
Text: Measurement of acetylation activity in cells on substrates:
ELISA Assay of Acetylation of Lysine
This assay is used to measure in vivo inhibition of HDAC6 in a cytoblot assay.
Materials and Reagent: • 1. 24-well tissue culture • 2. DMEM Medium containing 10% FBS • 3. 96-well white plate • 4. HeLa cell line • 5. M-PER Mammalian Protein Extraction Reagent (Pierce) • 6. Bradford assay reagent • 7. Acetylated-lysine polyclonal Antibody (Cell Signaling) • 8. HRP-labeled anti-rabbit IgG (Upstate) • 9. Coating Buffer: 15 mM Na2CO3, 35 mM NaHCO3 (pH 9.6) • 10. 10×PBS: 0.58M Na2HPO4, 0.17M NaH2PO4, 0.68M NaCl (pH 7.4) • 11. Wash Buffer:1×PBS containing 0.05% Tween-20 (PBST) • 12. Blocking Buffer:10 mg/ml bocine serum albumin (BSA) in PBS • 13. Antibody Dilution Buffer: 5 mg/ml BSA in PBST • 14. Enhanced chemiluminescence (ECL) (Amersham)
Procedure for performing the assay in 96-well plate: • 1. HeLa cells were seeded at a density of 60000 cells/500 μl/well in 24-well plate and incubated at 37° C. for 24 hours. • 2. Compounds were added and incubated for 24 hours at 37° C. • 3. Culture medium was removed, then washes the cells twice with ice-cold PBS. • 4. Add 100 μl/well of Protein Extraction Reagent and gently shake the mixture for 5 minutes. • 5. Collect the lysate to a 96-well plate respectively. Determine the concentration of protein by Bradford assay. • 6. Coat the wells of a 96-well white plate with 100 μl/well of 2.5 μg whole cell protein in Coating Buffer by incubating overnight at 4° C. • 7. Discard the uncoated proteins and wash the coated wells three times with 200 μl/well of PBST. • 8. Block coated wells by incubating the plate with 200 μl/well of Blocking Buffer for 1 hour at 37° C. • 9. Wells were aspirated and washed three times with 200 μl/well of PBST. • 10. After aspirating, 50 μl/well of Antibody Dilution Buffer containing acetylated-lysine polyclonal antibody (1:1000) were added to each well and incubated for 2 hour at 37° C. • 11. Wells were aspirated and washed three times with 200 μl/well of PBST. • 12. 50 μl/well of Antibody Dilution Buffer containing HRP-labeled anti-rabbit IgG (1:2000) were added to each well and incubated for 2 hour at 37° C. • 13. Wells were aspirated and washed three times with 200 μl/well of PBST. • 14. Wells were washed three times with 200 μl/well of purified water. • 15. Add 50 μl/well of ECL mixture, then read the plates on the plate reader.

[1] = tested on: HDAC4/5 (MEF2 reporter gene); test: HDAC subtype reporter gene assay, MEF-binding element (MEF2) luciferase in HeLa cells; format: cell-based; conditions: Homo sapiens, M-HeLa, read-out: % of SAHA Response for HDAC4/5 at 10 μM (MEF2 reporter gene), 24 hours
Procedure: Measurement of inhibition of HDAC subtypes activity in cells by reporter gene assay: HDAC subtype selectivity inhibition assay of tested compounds was carried out by several reporter gene assays experiments. Briefly, HeLa cells were seeded in 96-well plates the day before transfection to give a confluence of 50-80%. Cells were transfected with one of reporter gene plasmids containing a promoter sequences or response elements upstream of a luciferase gene construct using FuGene6 transfection reagent according to the manufacturer's instructions (Roche). The promoters or response elements including p21-promoter, gdf11-promoter, MEF-binding element (MEF2), Nur77-promoter were fused upstream to the luciferase gene reporter construct. For normalizing the transfection efficiency, a GFP expression plasmid was cotransfected. Cells were allowed to express protein for 24 hours followed by addition of individual compounds or the vehicle (DMSO). 24 hours later, the cells were harvested and the luciferase assays were performed using the luciferase assay kit according to the manufacturer's instructions (Promega). To normalize the data from the luciferase assays, GFP activity from transfected cells was measured in a microtiter-plate reading fluorimeter capable of excitation at a wavelength at 485 nm and detection of emitted light at 527 nm.

[2] = tested on: total HDAC enzyme (HeLa extract); test: In vitro inhibition of total HDAC enzyme activity (HDAC Fluorimetric Assay/Drug Discovery Kit, BIOMOL); format: biochemical, human
Procedure: Measurement of in vitro inhibition of total HDAC enzyme activity:
The in vitro inhibition of total HDAC enzyme was determined by HDAC Fluorimetric Assay/Drug Discovery Kit (BIOMOL) according to manufacture's instruction. • 1. Add Assay buffer, diluted trichostatin A or test inhibitor to appropriate wells of the microtiter plate. Following table lists examples of various assay types and the additions required for each test.
• 2. Add diluted HeLa extract or other HDAC sample to all wells except those that are to be “No Enzyme Controls” (Blank). • 3. Allow diluted Fluor de LyS™ Substrate and the samples in the microtiter plate to equilibrate to assay temperature (25° C.). • 4. Initiate HDAC reactions by adding diluted substrate (25 μl) to each well and mixing thoroughly. • 5. Allow HDAC reactions to proceed for desired length of time and then stop them by addition of Fluor de Lys™ Developer (50 μl). Incubate plate at room temperature (25° C.) for 10-15 min. • 6. Read samples in a microtiter-plate reading fluorimeter capable of excitation at a wavelength in the range 350-380 nm and detection of emitted light in the range 440-460 nm.

SMILES	% of Inhibition on Total HDAC Enzyme at 30 μM [2] [%]	fold induction at 10 µM (lysine acetylation)	Emax at 10 µM [1] [%]
O=C(CCCCCNC(=O)c1cccc(/C=C2\C(=O)Nc3ccc(F)cc32)c1)NO [Example 46, 6-(3-((5-fluoro-2-oxoindolin-3-ylidene)methyl)benzamido)-N-hydroxyhexanamide]	95	1.16	27
Nc1ccccc1NC(=O)CCCCNC(=O)c1cccc(/C=C2\C(=O)Nc3ccc(F)cc32)c1 [Example 49, 5-(3-((5-fluoro-2-oxoindolin-3-ylidene)methyl)benzamido)-N-(2-aminophenyl)pentanamide]	22	1.02	32
Nc1cc(F)ccc1NC(=O)CCCCNC(=O)c1cccc(/C=C2\C(=O)Nc3ccc(F)cc32)c1 [Example 50, 5-(3-((5-fluoro-2-oxoindolin-3-ylidene)methyl)benzamido)-N-(2-amino-4-fluorophenyl)pentanamide]	−3	1.08	43
O=C(CCCCCCCNC(=O)c1cccc(/C=C2\C(=O)Nc3ccc(F)cc32)c1)NO [Example 56, 8-(3-((5-fluoro-2-oxoindolin-3-ylidene)methyl)benzamido)-N-hydroxyoctanamide]	93	1.7	62

Now from value to compound, other results behind:

% of Inhibition on Total HDAC Enzyme at 30 μM [2] [%]	SMILES	fold induction at 10 µM (lysine acetylation)	Emax at 10 µM [1] [%]
86	O=C(CCCCNC(=O)c1cccc(/C=C2\C(=O)Nc3ccc(F)cc32)c1)NO [Example 51, 5-(3-((5-fluoro-2-oxoindolin-3-ylidene)methyl)benzamido)-N-hydroxypentanamide]	1.31	33
40	Nc1ccccc1NC(=O)CCCCCCCNC(=O)c1cccc(/C=C2\C(=O)Nc3ccc(F)cc32)c1 [Example 54, 8-(3-((5-fluoro-2-oxoindolin-3-ylidene)methyl)benzamido)-N-(2-aminophenyl)octanamide]	1.34	53
14	Nc1cc(F)ccc1NC(=O)CCCCCCCNC(=O)c1cccc(/C=C2\C(=O)Nc3ccc(F)cc32)c1 [Example 55, 8-(3-((5-fluoro-2-oxoindolin-3-ylidene)methyl)benzamido)-N-(2-amino-4-fluorophenyl)octanamide]	1.12	36
